In patent publication US8829029B2, “Dual modulators of 5HT2A and D3 receptors” (Hoffmann-La Roche Inc., priority 2008, dated 2014):
pKi: −log10 of the molar value.

Tests used:
[1] = target: human 5-HT2A serotonin receptor (Homo sapiens (Human), UniProt P28223); test: Radioligand binding ([3H]-ketanserin) to cloned human 5-HT2A receptor expressed in HEK-293 EBNA cells; details: membranes of transfected HEK-293 EBNA cells, 1.1 nM [3H]-ketanserin, 1 h at RT
Experimental: The ability of the compounds to bind to the 5-HT2A, D3 and D2 receptors was determined using radioligand binding to cloned receptors selectively expressed in HEK-293 EBNA cells.
(§1) HEK-293 EBNA cells were transiently transfected with expression plasmids encoding for the human D2 or D3 dopamine- or for the human 5-HT2A serotonin receptor, respectively. The cells were harvested 48 h post-transfection, washed three times with cold PBS and stored at −80° C. prior to use. The pellet was suspended in cold 50 mM Tris-HCl buffer containing 10 mM EDTA (pH 7.4) and homogenized with a Polytron (Kinematica AG, Basel, Switzerland) for 20-30 sec at 12,000 rpm. After centrifugation at 48,000×g for 30 min at 4° C., the pellet was resuspended in cold 10 mM Tris-HCl buffer containing 0.1 mM EDTA (pH 7.4), homogenized, and centrifuged as above. This pellet was further resuspended in a smaller volume of ice cold 10 mM Tris-HCl buffer containing 0.1 mM EDTA (pH 7.4) and homogenized with a Polytron for 20-30 sec at 12,000 rpm. The protein content of this homogenate was determined with the Bio-Rad (Bradford) Protein Assay (Biorad Laboratories GmbH, München, Germany) according to the instructions of the manufacturer using gamma globulin as the standard. This homogenate was stored at −80° C. in aliquots and thawed immediately prior to use.
Aliquots of membrane preparations were thawed at RT, resuspended in assay buffer (D2, D3: 50 mM Tris-HCl, 120 mM NaCl, 5 mM MgCl2, 1 mM EDTA, 5 mM KCl, 1.5 mM CaCl2, pH=7.4; 5-HT2A: 50 mM Tris-HCl, 10 mM MgCl2, 1 mM EGTA, pH=7.4), homogenized with a Polytron for 20-30 sec at 12,000 rpm and adjusted to a final concentration of approximately 7.5 μg protein/well (D2, D3) and 15 μg protein/well (5-HT2A), respectively.
(§2) The binding affinity (Ki) of the compounds was determined using radioligand binding. Membranes were incubated in a total volume of 200 μl with a fixed concentration of radioligand (final concentration approximately 0.7 nM [^3H]-spiperone for D2, 0.5 nM [^3H]-spiperone for D3, and 1.1 nM [^3H]-ketanserin for 5-HT2A) and ten concentrations of test compound in ranging between 10 μM-0.1 nM for 1 h at RT. At the end of the incubation, the reaction mixtures were filtered on to unifilter 96-well white microplates with bonded GF/C filters (Packard BioScience, Zürich, Switzerland; preincubated for 1 h in 0.1% polyethylenimine (PEI) in assay buffer) with a Filtermate 196 harvester (Packard BioScience) and washed 3 times with cold assay buffer. The nonspecific binding was determined with equally composed reaction mixtures in the presence of 10 μM unlabelled spiperone. Per well 45 μl of Microscint 40 (Perkin Elmer, Schwerzenbach, Switzerland) was added, plates for sealed, shaken for 20 min and counted for 3 min on a Topcount Microplate Scintillation Counter (Canberra Packard SA, Zürich, Switzerland) with quenching correction.
(§3) The CPM value for each duplicate of a concentration of competing compound was averaged (y1), then the % specific binding was calculated according to the equation (((y1−non-specific)/(total binding−non-specific))×100). Graphs were plotted with the % specific binding using XLfit, a curve fitting program that iteratively plots the data using Levenburg Marquardt algorithm. The single site competition analysis equation used was y=A+((B−A)/(1+((x/C)^D))), where y is the % specific binding, A is the minimum y, B is the maximum y, C is the IC50, x is the log10 of the concentration of the competing compound and D is the slope of the curve (the Hill Coefficient). From these curves the IC50 (inhibition concentration at which 50% specific binding of the radioligand was displaced) and Hill coefficient were determined. The affinity constant (Ki) was calculated using the Cheng-Prusoff equation Ki=(IC50/1+([L]/Kd), where [L] is the concentration of radioligand and Kd is the dissociation constant of the radioligand at the receptor as determined by the saturation isotherm.

[2] = target: human D3 dopamine receptor (Homo sapiens (Human), UniProt P35462); test: Radioligand binding ([3H]-spiperone) to cloned human D3 receptor expressed in HEK-293 EBNA cells; details: membranes of transfected HEK-293 EBNA cells, 0.5 nM [3H]-spiperone, 1 h at RT
Experimental: as §1, with “The pellet was suspended in cold 50 mM Tris-HCl buffer containing 10 mM EDTA (pH 7.4) and homogenized with a Polytron (Kinematica AG, Basel, Switzerland) for 20-30 sec at 12,000 rpm.” left out, “This pellet was further resuspended in a smaller volume of ice cold 10 mM Tris-HCl buffer containing 0.1 mM EDTA (pH 7.4) and homogenized with a Polytron for 20-30 sec at 12,000 rpm.” left out
as §2, §3

human D3 dopamine receptor, sequence (P35462 whole entry): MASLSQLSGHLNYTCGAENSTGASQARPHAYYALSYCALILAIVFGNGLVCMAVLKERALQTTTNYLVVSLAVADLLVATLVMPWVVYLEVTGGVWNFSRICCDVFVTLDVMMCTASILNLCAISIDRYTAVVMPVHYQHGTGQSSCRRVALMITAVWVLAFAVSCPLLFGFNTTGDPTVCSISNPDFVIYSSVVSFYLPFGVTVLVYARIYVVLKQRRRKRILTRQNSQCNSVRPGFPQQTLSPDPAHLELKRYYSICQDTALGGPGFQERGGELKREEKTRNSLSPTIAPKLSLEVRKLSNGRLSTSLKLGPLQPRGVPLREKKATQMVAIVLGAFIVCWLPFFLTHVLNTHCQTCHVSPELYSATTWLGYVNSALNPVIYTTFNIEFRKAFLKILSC

Molecule | pKi [1] | pKi [2]
Cc1ccn(CC(=O)N[C@H]2CC[C@H](CCN3CCC(c4noc5cc(F)ccc45)CC3)CC2)n1 [Example 16, N-trans (4-{2-[4-(6-Fluoro-benzo[d]isoxazol-3-yl)-piperidin-1-yl]-ethyl}-cyclohexyl)-2-(3-methyl-pyrazol-1-yl)-acetamide] | 8.55 | 7.56
CO[C@H](C)CC(=O)N[C@H]1CC[C@H](CCN2CCC(c3noc4cc(Cl)ccc34)CC2)CC1 [Example 43A, (R)—N-trans(4-{2-[4-(6-Chloro-benzo[d]isoxazol-3-yl)-piperidin-1-yl]-ethyl}-cyclohexyl)-3-methoxy-butyramide] | 7.80 | 7.82
CS(=O)(=O)N[C@H]1CC[C@H](CCN2CCC(c3noc4ccc(F)cc34)CC2)CC1 [Example 59, N-trans-(4-{2-[4-(5-Fluoro-benzo[d]isoxazol-3-yl)-piperidin-1-yl]-ethyl}-cyclohexyl)-methanesulfonamide] | 7.56 | 8.10
O=C(N[C@H]1CC[C@H](CCN2CCC(c3noc4cc(F)ccc34)CC2)CC1)c1ccc(-n2cccc2)cc1 [Example 17, N-trans(4-{2-[4-(6-Fluoro-benzo[d]isoxazol-3-yl)-piperidin-1-yl]-ethyl}-cyclohexyl)-4-pyrrol-1-yl-benzamide] | 8.61 | 8.58
CC(=O)N[C@H]1CC[C@H](CCN2CCC(c3noc4cc(F)c(F)cc34)CC2)CC1 [Example 66, N-trans-(4-{2-[4-(5,6-Difluoro-benzo[d]isoxazol-3-yl)-piperidin-1-yl]-ethyl}-cyclohexyl)-acetamide] | 7.75 | 7.94
O=C(N[C@H]1CC[C@H](CCN2CCC(c3noc4cc(F)ccc34)CC2)CC1)C1CCOCC1 [Example 2, Tetrahydro-pyran-4-carboxylic acid trans(4-{2-[4-(6-fluoro-benzo[d]isoxazol-3-yl)-piperidin-1-yl]-ethyl}-cyclohexyl)-amide] | 8.76 | 8.01
O=C(CC1OCCCO1)N[C@H]1CC[C@H](CCN2CCC(c3noc4cc(Cl)ccc34)CC2)CC1 [Example 57, N-trans-(4-{2-[4-(6-Chloro-benzo[d]isoxazol-3-yl)-piperidin-1-yl]-ethyl}-cyclohexyl)-2-[1,3]dioxan-2-yl-acetamide] | 7.75 | 8.21
CC(C)(C)Oc1ccc(C(=O)N[C@H]2CC[C@H](CCN3CCC(c4noc5cc(F)ccc45)CC3)CC2)cc1 [Example 9, 4-tert-Butoxy-N-trans (4-{2-[4-(6-fluoro-benzo[d]isoxazol-3-yl)-piperidin-1-yl]-ethyl}-cyclohexyl)-benzamide] | 8.76 | 8.47
O=C(CO)N[C@H]1CC[C@H](CCN2CCC(c3noc4cc(F)c(F)cc34)CC2)CC1 [Example 67, N-trans-(4-{2-[4-(5,6-Difluoro-benzo[d]isoxazol-3-yl)-piperidin-1-yl]-ethyl}-cyclohexyl)-2-hydroxy-acetamide] | 7.93 | 7.70
O=C(CC1CCCO1)N[C@H]1CC[C@H](CCN2CCC(c3noc4cc(Cl)ccc34)CC2)CC1 (stereo partly drawn) [Example 38, N-trans-(4-{2-[4-(6-Chloro-benzo[d]isoxazol-3-yl)-piperidin-1-yl]-ethyl}-cyclohexyl)-2-(tetrahydro-furan-2-yl)-acetamide] | 7.89 | 8.05
CO[C@H]1CC[C@H](CC(=O)N[C@H]2CC[C@H](CCN3CCC(c4noc5cc(F)c(F)cc45)CC3)CC2)CC1 [Example 64, N-trans-(4-{2-[4-(5,6-Difluoro-benzo[d]isoxazol-3-yl)-piperidin-1-yl]-ethyl}-cyclohexyl)-2-(4-methoxy-cyclohexyl)-acetamide] | 8.12 | 7.76
O=C(N[C@H]1CC[C@H](CCN2CCC(c3noc4cc(F)ccc34)CC2)CC1)c1ccc(N2CCOCC2)c(F)c1 [Example 5, 3-Fluoro-N-trans (4-{2-[4-(6-fluoro-benzo[d]isoxazol-3-yl)-piperidin-1-yl]-ethyl}-cyclohexyl)-4-morpholin-4-yl-benzamide] | 7.76 | 7.34
O=C(N[C@H]1CC[C@H](CCN2CCC(c3noc4cc(F)ccc34)CC2)CC1)C1(C(F)(F)F)CCC1 [Example 19, 1-Trifluoromethyl-cyclobutanecarboxylic acid trans (4-{2-[4-(6-fluoro-benzo[d]isoxazol-3-yl)-piperidin-1-yl]-ethyl}-cyclohexyl)-amide] | 8.65 | 8.11
CO[C@H]1CC[C@H](CC(=O)N[C@H]2CC[C@H](CCN3CCC(c4noc5ccc(Cl)cc45)CC3)CC2)CC1 [Example 58, N-trans-(4-{2-[4-(5-Chloro-benzo[d]isoxazol-3-yl)-piperidin-1-yl]-ethyl}-cyclohexyl)-2-(4-methoxy-cyclohexyl)-acetamide] | 7.61 | 8.08
N-trans-(4-{2-[4-(6-Chloro-benzo[d]isoxazol-3-yl)-piperidin-1-yl]-ethyl}-cyclohexyl)-2-trans (4-methoxy-cyclohexyl)-acetamide [Example 35] | 8.02 | 7.94
CO[C@@H](C)CC(=O)N[C@H]1CC[C@H](CCN2CCC(c3noc4cc(Cl)ccc34)CC2)CC1 [Example 43B, (S)—N-(4-{2-[4-(6-Chloro-benzo[d]isoxazol-3-yl)-piperidin-1-yl]-ethyl}-cyclohexyl)-3-methoxy-butyramide] | 7.80 | 8.22
COc1ccc(C(=O)N[C@H]2CC[C@H](CCN3CCC(c4noc5cc(F)ccc45)CC3)CC2)cc1 [Example 8, N-trans-(4-{2-[4-(6-Fluoro-benzo[d]isoxazol-3-yl)-piperidin-1-yl]-ethyl}-cyclohexyl)-4-methoxy-benzamide] | 8.44 | 8.34
CC(=O)N[C@H]1CC[C@H](CCN2CCC(c3noc4cc(Cl)ccc34)CC2)CC1 [Example 46, N-trans(4-{2-[4-(6-Chloro-benzo[d]isoxazol-3-yl)-piperidin-1-yl]-ethyl}-cyclohexyl)-acetamide] | 7.62 | 8.09
CCS(=O)(=O)N[C@H]1CC[C@H](CCN2CCC(c3noc4cc(F)ccc34)CC2)CC1 [Example 47, Ethanesulfonic acid (4-trans {2-[4-(6-fluoro-benzo[d]isoxazol-3-yl)-piperidin-1-yl]-ethyl}-cyclohexyl)-amide] | 8.78 | 8.23
O=C(CC1OCCCO1)N[C@H]1CC[C@H](CCN2CCC(c3noc4cc(F)c(F)cc34)CC2)CC1 [Example 72, N-trans-(4-{2-[4-(5,6-Difluoro-benzo[d]isoxazol-3-yl)-piperidin-1-yl]-ethyl}-cyclohexyl)-2-[1,3]dioxan-2-yl-acetamide] | 8.03 | 7.87
